Measurements taken from PubChem BioAssay AID2060910 (Molecular Pharmacology Branch, DTP, NCI, 2025).

Tested on: 242566-281-R-J2-PDC complex spheroid viability
Assay: Anticancer human tumor 242566-281-R-J2-PDC patient-derived pancreatic carcinoma cell line growth inhibition [RAS]
Details: for IC50: curve of first compound; for viability, T/C: stronger effect = lower value
Outline: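 Tumour cells grown as complex spheroids with HUVEC endothelial cells and mesenchymal stem cells, treated with RAS pathway inhibitor combinations. Each agent spans half-log steps from near clinical Cmax, or 10 microM where Cmax is unknown.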

[1] = second compound 0.000949 µM, first compound 0.0316 µM
[2] = second compound 0.000949 µM, first compound 0.1 µM
[3] = second compound 0.000949 µM, first compound 0.316 µM
[4] = second compound 0.000949 µM, first compound 1 µM
[5] = second compound 0.003 µM, first compound 0.0316 µM
[6] = second compound 0.003 µM, first compound 0.1 µM
[7] = second compound 0.003 µM, first compound 0.316 µM
[8] = second compound 0.003 µM, first compound 1 µM
[9] = second compound 0.00949 µM, first compound 0.0316 µM
[10] = second compound 0.00949 µM, first compound 0.1 µM
[11] = second compound 0.00949 µM, first compound 0.316 µM
[12] = second compound 0.00949 µM, first compound 1 µM
[13] = second compound 0.03 µM, first compound 0.0316 µM
[14] = second compound 0.03 µM, first compound 0.1 µM
[15] = second compound 0.03 µM, first compound 0.316 µM
[16] = second compound 0.03 µM, first compound 1 µM
[17] = second compound 0.0949 µM, first compound 0.0316 µM
[18] = second compound 0.0949 µM, first compound 0.1 µM
[19] = second compound 0.0949 µM, first compound 0.316 µM
[20] = second compound 0.0949 µM, first compound 1 µM
[21] = second compound 0.3 µM, first compound 0.0316 µM
[22] = second compound 0.3 µM, first compound 0.1 µM
[23] = second compound 0.3 µM, first compound 0.316 µM
[24] = second compound 0.3 µM, first compound 1 µM
[25] = second compound 0.000949 µM, first compound 3.16 µM
[26] = second compound 0.000949 µM, first compound 10 µM
[27] = second compound 0.003 µM, first compound 3.16 µM
[28] = second compound 0.003 µM, first compound 10 µM
[29] = second compound 0.00949 µM, first compound 3.16 µM
[30] = second compound 0.00949 µM, first compound 10 µM
[31] = second compound 0.03 µM, first compound 3.16 µM
[32] = second compound 0.03 µM, first compound 10 µM
[33] = second compound 0.0949 µM, first compound 3.16 µM
[34] = second compound 0.0949 µM, first compound 10 µM
[35] = second compound 0.3 µM, first compound 3.16 µM
[36] = second compound 0.3 µM, first compound 10 µM
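Further: spheroids exposed to compound for 7 days before readout.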
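Wherever viability, T/C is given: 100% = DMSO vehicle control wells.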

CCN1CCN(Cc2ccc(Nc3ncc(F)c(-c4cc(F)c5nc(C)n(C(C)C)c5c4)n3)nc2)CC1 + CCn1c(-c2cccnc2C(C)OC)c2c3cc(ccc31)N1CCOC(CC(NC(=O)C(C(C)C)N(C)C(=O)C3(F)CCN(C(=O)C#CC(C)(C)N(C)C)CC3)C(=O)N3CCCC(N3)C(=O)OCC(C)(C)C2)C1
IC50 (second compound 0.000949 µM): > 1 µM | IC50 (second compound 0.003 µM): > 1 µM | IC50 (second compound 0.00949 µM): > 1 µM | IC50 (second compound 0.03 µM): > 1 µM | IC50 (second compound 0.0949 µM): > 1 µM | IC50 (second compound 0.3 µM): > 1 µM | viability, T/C (second compound 0.000949 µM, first compound 0.00316 µM): 102% | viability, T/C (second compound 0.000949 µM, first compound 0.01 µM): 92.2% | viability, T/C [1]: 78.6% | viability, T/C [2]: 88.5% | viability, T/C [3]: 102% | viability, T/C [4]: 99.6% | viability, T/C (second compound 0.003 µM, first compound 0.00316 µM): 109% | viability, T/C (second compound 0.003 µM, first compound 0.01 µM): 93.5% | viability, T/C [5]: 81.5% | viability, T/C [6]: 88.2% | viability, T/C [7]: 103% | viability, T/C [8]: 94.7% | viability, T/C (second compound 0.00949 µM, first compound 0.00316 µM): 102% | viability, T/C (second compound 0.00949 µM, first compound 0.01 µM): 99.4% | viability, T/C [9]: 93.1% | viability, T/C [10]: 86.5% | viability, T/C [11]: 98.4% | viability, T/C [12]: 109% | viability, T/C (second compound 0.03 µM, first compound 0.00316 µM): 97.5% | viability, T/C (second compound 0.03 µM, first compound 0.01 µM): 94.7% | viability, T/C [13]: 85.8% | viability, T/C [14]: 97.2% | viability, T/C [15]: 88.2% | viability, T/C [16]: 117% | viability, T/C (second compound 0.0949 µM, first compound 0.00316 µM): 83.8% | viability, T/C (second compound 0.0949 µM, first compound 0.01 µM): 92.8% | viability, T/C [17]: 93.4% | viability, T/C [18]: 93.1% | viability, T/C [19]: 83.8% | viability, T/C [20]: 107% | viability, T/C (second compound 0.3 µM, first compound 0.00316 µM): 83.5% | viability, T/C (second compound 0.3 µM, first compound 0.01 µM): 79.2% | viability, T/C [21]: 79.5% | viability, T/C [22]: 77.7% | viability, T/C [23]: 93% | viability, T/C [24]: 116%

C[C@@H](NC(=O)c1ncnc(N)c1Cl)c1ncc(C(=O)Nc2cc(C(F)(F)F)c(Cl)cn2)s1 + CCn1c(-c2cccnc2C(C)OC)c2c3cc(ccc31)N1CCOC(CC(NC(=O)C(C(C)C)N(C)C(=O)C3(F)CCN(C(=O)C#CC(C)(C)N(C)C)CC3)C(=O)N3CCCC(N3)C(=O)OCC(C)(C)C2)C1
IC50 (second compound 0.000949 µM): > 10 µM | IC50 (second compound 0.003 µM): > 10 µM | IC50 (second compound 0.00949 µM): > 10 µM | IC50 (second compound 0.03 µM): > 10 µM | IC50 (second compound 0.0949 µM): > 10 µM | IC50 (second compound 0.3 µM): > 10 µM | viability, T/C [1]: 126% | viability, T/C [2]: 107% | viability, T/C [3]: 112% | viability, T/C [4]: 103% | viability, T/C [25]: 107% | viability, T/C [26]: 63.8% | viability, T/C [5]: 106% | viability, T/C [6]: 100% | viability, T/C [7]: 106% | viability, T/C [8]: 105% | viability, T/C [27]: 97.3% | viability, T/C [28]: 87.7% | viability, T/C [9]: 113% | viability, T/C [10]: 104% | viability, T/C [11]: 95.1% | viability, T/C [12]: 115% | viability, T/C [29]: 91.8% | viability, T/C [30]: 83.1% | viability, T/C [13]: 105% | viability, T/C [14]: 90.8% | viability, T/C [15]: 109% | viability, T/C [16]: 90.6% | viability, T/C [31]: 77.3% | viability, T/C [32]: 101% | viability, T/C [17]: 94.9% | viability, T/C [18]: 105% | viability, T/C [19]: 90.7% | viability, T/C [20]: 105% | viability, T/C [33]: 69.8% | viability, T/C [34]: 98.1% | viability, T/C [21]: 90.8% | viability, T/C [22]: 84.5% | viability, T/C [23]: 108% | viability, T/C [24]: 88.1% | viability, T/C [35]: 85.5% | viability, T/C [36]: 86.7%

Cc1nc(N2CCC3(CC2)COC(C)C3N)c(CO)nc1Sc1ccnc(N)c1Cl (stereo unspecified) + CCn1c(-c2cccnc2C(C)OC)c2c3cc(ccc31)N1CCOC(CC(NC(=O)C(C(C)C)N(C)C(=O)C3(F)CCN(C(=O)C#CC(C)(C)N(C)C)CC3)C(=O)N3CCCC(N3)C(=O)OCC(C)(C)C2)C1
IC50 (second compound 0.000949 µM): > 10 µM | IC50 (second compound 0.003 µM): > 10 µM | IC50 (second compound 0.00949 µM): > 10 µM | IC50 (second compound 0.03 µM): > 10 µM | IC50 (second compound 0.0949 µM): > 10 µM | IC50 (second compound 0.3 µM): > 10 µM | viability, T/C [1]: 94.9% | viability, T/C [2]: 93.2% | viability, T/C [3]: 63.1% | viability, T/C [4]: 77.4% | viability, T/C [25]: 71.5% | viability, T/C [26]: 53.4% | viability, T/C [5]: 102% | viability, T/C [6]: 80% | viability, T/C [7]: 80% | viability, T/C [8]: 81.5% | viability, T/C [27]: 74% | viability, T/C [28]: 52.8% | viability, T/C [9]: 98.8% | viability, T/C [10]: 73.4% | viability, T/C [11]: 67.3% | viability, T/C [12]: 71% | viability, T/C [29]: 67.1% | viability, T/C [30]: 68.6% | viability, T/C [13]: 97.6% | viability, T/C [14]: 85.5% | viability, T/C [15]: 82% | viability, T/C [16]: 73.7% | viability, T/C [31]: 60.7% | viability, T/C [32]: 61.6% | viability, T/C [17]: 75.1% | viability, T/C [18]: 77.3% | viability, T/C [19]: 79.7% | viability, T/C [20]: 71.1% | viability, T/C [33]: 54.3% | viability, T/C [34]: 61.9% | viability, T/C [21]: 73.7% | viability, T/C [22]: 72.8% | viability, T/C [23]: 61.5% | viability, T/C [24]: 50.5% | viability, T/C [35]: 49.9% | viability, T/C [36]: 51.5%
